The supplement of paper PMC13380429
± gives the standard deviation of the averaged measurements.

Legend:
Settings in all cases: 72 h
HepG2 [1] = assay: relative viability EC50 (midpoint between 100% and the lowest measured viability); higher = less toxic
Caco-2 [2] = assay: as above
Calu-3 [3] = assay: as above
U2OS [4] = assay: as above
Vero E6 [5] = assay: as above
HepG2 [6] = assay: cell viability relative to DMSO; higher = less toxic
Caco-2 [7] = assay: as above
Calu-3 [8] = assay: as above
U2OS [9] = assay: as above
Vero E6 [10] = assay: as above
HepG2 [11] = assay: drug sensitivity score (DSS) for viability; higher = more toxic; extreme values may be limits of the assay
Caco-2 [12] = assay: as above
Calu-3 [13] = assay: as above
U2OS [14] = assay: as above
Vero E6 [15] = assay: as above

Compound | relative viability EC50 (HepG2 [1]) [µM] | relative viability EC50 (Caco-2 [2]) [µM] | relative viability EC50 (Calu-3 [3]) [µM] | relative viability EC50 (U2OS [4]) [µM] | relative viability EC50 (Vero E6 [5]) [µM] | cell viability (HepG2 [6]; 1 nM) [%] | cell viability (HepG2 [6]; 10 nM) [%] | cell viability (HepG2 [6]; 100 nM) [%] | cell viability (HepG2 [6]; 1000 nM) [%] | cell viability (HepG2 [6]; 10000 nM) [%] | cell viability (Caco-2 [7]; 1 nM) [%] | cell viability (Caco-2 [7]; 10 nM) [%] | cell viability (Caco-2 [7]; 100 nM) [%] | cell viability (Caco-2 [7]; 1000 nM) [%] | cell viability (Caco-2 [7]; 10000 nM) [%] | cell viability (Calu-3 [8]; 1 nM) [%] | cell viability (Calu-3 [8]; 10 nM) [%] | cell viability (Calu-3 [8]; 100 nM) [%] | cell viability (Calu-3 [8]; 1000 nM) [%] | cell viability (Calu-3 [8]; 10000 nM) [%] | cell viability (U2OS [9]; 1 nM) [%] | cell viability (U2OS [9]; 10 nM) [%] | cell viability (U2OS [9]; 100 nM) [%] | cell viability (U2OS [9]; 1000 nM) [%] | cell viability (U2OS [9]; 10000 nM) [%] | cell viability (Vero E6 [10]; 1 nM) [%] | cell viability (Vero E6 [10]; 10 nM) [%] | cell viability (Vero E6 [10]; 100 nM) [%] | cell viability (Vero E6 [10]; 1000 nM) [%] | cell viability (Vero E6 [10]; 10000 nM) [%] | drug sensitivity score (HepG2 [11]) | drug sensitivity score (Caco-2 [12]) | drug sensitivity score (Calu-3 [13]) | drug sensitivity score (U2OS [14]) | drug sensitivity score (Vero E6 [15])
Cc1nc(Nc2n[nH]c3c2CN(C(=O)N[C@H](CN(C)C)c2ccccc2)C3(C)C)c2sccc2n1 | 0.0349 | 0.203 | 0.571 | 0.192 | 0.552 | 89 | 72.6 | 38.4 | 26.6 | 10.3 | 98.9 | 97.9 | 70.6 | 68.8 | 45.9 | 92.2 | 89.9 | 82 | 61.7 | 25.2 | 100 | 88.6 | 54.5 | 35 | 0.8 | 97.9 | 99.9 | 93.7 | 64.4 | 46.6 | 24.9 | 9.5 | 10.1 | 19 | 7.4
CC1(C)OC[C@@H](COC(=O)CCc2ccc(OC[C@@H](O)CNCCNC(=O)N3CCOCC3)cc2)O1 [landiolol] | > 10 | > 10 | > 10 | > 10 | > 10 | 81.9 | 106 | 104 | 86.3 | 96.8 | 111 | 103 | 98.2 | 108 | 107 | 105 | 97.7 | 97.2 | 104 | 101 | 98.4 | 99.2 | 96.9 | 101 | 97.1 | 96.2 | 97.4 | 93.4 | 94.6 | 96.6 | 0 | 0 | 0 | 0 | 0
Nc1ccc(S(=O)(=O)NC(=O)c2ccccc2)cc1 [sulfabenzamide] | > 10 | > 10 | > 10 | > 10 | > 10 | 109 | 102 | 99 | 103 | 109 | 92.3 | 104 | 100 | 100 | 108 | 109 | 101 | 96.8 | 106 | 106 | 94.7 | 93.9 | 102 | 98.1 | 103 | 97.4 | 95.4 | 92.1 | 96.7 | 105 | 0 | 0 | 0 | 0 | 0
Cc1cc(/C=C2\SC(=O)N(c3ccccc3)C2=O)c(C)n1-c1cccnc1 [iCRT-14] | > 10 | > 10 | > 10 | > 10 | > 10 | 96.7 | 102 | 93.4 | 94.3 | 76.2 | 107 | 107 | 102 | 96.8 | 89 | 101 | 88.7 | 100 | 104 | 107 | 97 | 96.8 | 102 | 95.7 | 96.4 | 105 | 102 | 96.8 | 99.8 | 89.8 | 1.4 | 0.1 | 0 | 0 | 0
CC#CCOC(=O)c1c(C)nc2sc3c(c2c1N)CCC(O)C3 (stereo not given) | > 10 | > 10 | > 10 | > 10 | > 10 | 100 | 94.8 | 89.9 | 106 | 91.4 | 97.3 | 91.4 | 101 | 92.3 | 90.2 | 113 | 93.6 | 102 | 101 | 97.4 | 100 | 94.6 | 103 | 93.8 | 95.9 | 91.6 | 97 | 88.6 | 93.2 | 98.9 | 0 | 0 | 0 | 0 | 0
Cc1ccc2c(c1)Cc1c(C(=O)NN3CCCCC3)nn(-c3ccc(Cl)cc3Cl)c1-2 [GP1a] | > 10 | > 10 | > 10 | > 10 | > 10 | 100 | 96.9 | 98.4 | 91.9 | 91.3 | 102 | 102 | 103 | 99.5 | 84.1 | 99.6 | 101 | 91.8 | 101 | 86.7 | 99.4 | 108 | 97.7 | 101 | 89.7 | 99.9 | 100 | 103 | 100 | 98.6 | 0 | 0.3 | 0.1 | 0 | 0
COc1ccc(Nc2nccc(NCCO)n2)cc1 [cardiogenol-C] | > 10 | > 10 | > 10 | > 10 | > 10 | 93.4 | 93.1 | 93.4 | 108 | 102 | 105 | 87.7 | 101 | 95.8 | 103 | 94.4 | 92.7 | 92.5 | 92.5 | 102 | 97.7 | 97.2 | 102 | 96.1 | 98.2 | 94.4 | 105 | 94.8 | 104 | 100 | 0 | 0 | 0 | 0 | 0
Nc1ccn([C@H]2C[C@H](O)[C@@H](CO)O2)c(=O)n1 [torcitabine] | > 10 | > 10 | > 10 | > 10 | > 10 | 105 | 94.3 | 94.6 | 104 | 98.8 | 105 | 95 | 101 | 97.1 | 86.5 | 100 | 94.6 | 91.9 | 99.9 | 85.6 | 102 | 106 | 99.1 | 104 | 95.5 | 104 | 95.7 | 90.2 | 95.2 | 101 | 0 | 0.3 | 0 | 0 | 0
CO[C@H]1C[C@H](O[C@H]2CC[C@@]3(C)[C@H](CC[C@@H]4[C@@H]3CC[C@]3(C)[C@@H](C5=CC(=O)OC5)[C@@H](OC(C)=O)C[C@]43O)C2)O[C@@H](C)[C@@H]1O [oleandrin] | 0.0769 | 0.0155 | 0.0355 | 0.0334 | 0.0214 | 102 | 107 | 38.1 | 7.4 | 6.4 | 98.1 | 79.5 | 17.8 | 19.5 | 20.9 | 102 | 89.3 | 31.6 | 18.4 | 17.4 | 104 | 98.4 | 10.8 | 7.3 | 9.5 | 101 | 87.5 | 1.1 | 1.1 | 1.3 | 24.1 | 28.6 | 24.5 | 28.1 | 32.3
Cc1cc(C)nc(NS(=O)(=O)c2ccc(NC(=S)NC(=O)COc3ccc(Br)cc3Cl)cc2)n1 [ZCL-278] | > 10 | > 10 | > 10 | > 10 | > 10 | 108 | 98.1 | 100 | 96.4 | 98.4 | 97.7 | 102 | 104 | 92.2 | 98.7 | 98.4 | 94.8 | 103 | 104 | 107 | 95.6 | 100 | 93.5 | 97.9 | 93.8 | 93.4 | 97.5 | 101 | 103 | 95.9 | 0 | 0 | 0 | 0 | 0
CCN(CC)CCOc1ccccc1C(=O)CCc1ccccc1 [etafenone] | > 10 | > 10 | > 10 | > 10 | > 10 | 98.6 | 90.6 | 106 | 94.7 | 94.3 | 93.3 | 104 | 94 | 103 | 100 | 96.9 | 99 | 106 | 108 | 101 | 94.8 | 101 | 97.9 | 103 | 103 | 93.2 | 93 | 101 | 91.8 | 102 | 0 | 0 | 0 | 0 | 0
C=CCCCCCCCCC(=O)[O][Zn][O]C(=O)CCCCCCCCC=C [zinc-undecylenate] | > 10 | > 10 | > 10 | > 10 | > 10 | 102 | 98.8 | 99.3 | 100 | 92 | 94.4 | 96.3 | 98.2 | 96.6 | 86.9 | 95.7 | 100 | 101 | 95.6 | 116 | 97.7 | 98.8 | 98.4 | 95.1 | 99.1 | 105 | 95.9 | 94.8 | 98.5 | 93.9 | 0 | 0.3 | 0 | 0 | 0
CC(C)NCC(O)COc1cccc2[nH]ccc12 (stereo not given) [pindolol] | > 10 | > 10 | > 10 | > 10 | > 10 | 111 ± 10 | 90 ± 12 | 105 ± 0.14 | 85.5 ± 29 | 103 ± 8.6 | 117 | 100 | 122 | 101 | 90.9 | 98.8 ± 1.1 | 97 ± 6.8 | 100.4 ± 0.28 | 103.8 ± 0.92 | 102 ± 15 | 103 ± 5 | 101 ± 2.3 | 99.5 ± 3.3 | 102.5 ± 0.35 | 103 ± 0.14 | 99.2 ± 1.3 | 95.8 ± 1.4 | 96.1 ± 9.6 | 98.8 ± 2.1 | 95 ± 11 | 0 | 0 | 0 | 0 | 0
